Experimental data reported in US9890194B2, “Epitope and its use” (W[…] BADAŃEIT+ SP. Z O.O., priority 2012, dated 2018).

Legend:
[1] = system: antibodies present in human umbilical blood sera; test: Immunological activity of truncated and substituted peptides derived from RYDERY with umbilical serum; assay type: binding; details: FIG. 4
From the text: Unexpectedly it was shown that the immunological activity of the RYDERY peptide (SEQ ID NO: 2) is not affected by the removal of amino-acids in positions P+1 and P+2, nor in P−1, […]. The removal of amino-acids in positions P1 or P6, and in the subsequent positions (P2, P3 or P5, P4) caused a complete loss of activity. Likewise, a loss of immunological activity was caused by an exchange of residues at positions P1, P2 and P5. The latter amino-acids must remain unchanged in the final form of the peptide vaccine. Positions P3, P4 and P6 are less restrictive. In this case native amino-acids may be substituted by a series of other residues without any significant loss of immunological activity (FIG. 4). This property of the epitope facilitates the synthesis of a peptide less susceptible to enzymatic hydrolysis, and a higher antigenicity.
Furthermore, it was unexpectedly shown that an alteration of amino-acid D or E for Q yields an increased reactivity with umbilical serum (FIG. 5).

[2] = system: antibodies present in umbilical blood sera 1H-9H (IgG); test: ELISA of peptides synthesized on HPM-pins with a mixture of 9 umbilical blood sera (1H-9H); assay type: binding, human; details: mixture of umbilical sera 1H-9H; 29 overlapping twelve amino-acid peptides of Table 1 on HPM-pins
From the text: Peptides representing the bioinformatically predicted regions were synthesized using an NCP kit with 96 hydroxypropylmethacrylate (HPM) pins (MIMOTOPES, Clayton, Victoria, Australia) according to the manufacturer's specifications (Carter, J.M. (1994) An epitope mapping of a protein using the Geysen (PEPSCAN) procedure. Methods Mol Biol 36: 207-223). As the sixth, control, peptide we synthesised a fragment corresponding to the N-terminal region of ompC (AEVYNKDGNKLD-pin (SEQ ID NO: 12)).
After the completed synthesis, we performed initial reactivity tests for the individual peptides, using a standard ELISA test. The ELISA was performed in a mixture of 9 different umbilical blood sera (1H-9H) according to the following scheme: • a. Pin equilibration in TBS-T. • b. Blocking of free sites on the pins using 1% BSA in TBS-T • c. Incubation with umbilical sera at a dilution of 1:500 in a solution of 1% BSA in TBS-T buffer • d. Rinsing with TBS-T buffer • e. Incubation with secondary antibodies, conjugated Anti-Human IgG (Fc)-AP (Promega) • f. Rinsing with TBS-T • g. Reaction of AP with the substrate pNPP (p-Nitrophenyl Phosphate, Sigma) and absorbance measurement at 405 nm • h. Dissociation of proteins/antibodies from peptides synthesized on HPM-pins. […]

| Substance | immunological activity of peptides derived from RYDERY (removal or exchange of residues) [1] | binding of antibodies in umbilical sera by loop V peptides [2] |
| --- | --- | --- |
| YDERY | no activity | – |
| RYDERY | – | shortest active portion of the epitope |
